# In patent US20110152112A1, “DIAGNOSIS AND TREATMENT OF REVERSE CHOLESTEROL TRANSPORT DEFICIENCY-RELATED DISEASES” (Artery Therapeutics, Inc., priority 2009, published 2011):
# Tested on: J774 mouse macrophages (foam-cells)
# Test: Lipid efflux from J774 macrophage foam-cells to media (nascent HDL, LC-MS/MS)
# Type: cell-based
# Description: Study 1: Isolation of Nascent HDL from Incubations of Macrophage Foam-Cells with AT5261 and apoA-I.
# A commercial transformed macrophage cell-line, J774 (mouse), was used to evaluate lipid efflux responses to peptide ATI-5261 and ApoA-I. Macrophage foam-cells were prepared and exposed to lipid-free AT5261 peptide and ApoA-I, respectively; Nascent HDL products resulting from stimulation of cholesterol efflux were isolated and concentrated from conditioned medium and analyzed for lipid content.
# Near confluent T175-flasks (30 total) of J774 mouse macrophages were incubated (2 days) with 0.1 mg/ml acetylated LDL in […] culture medium containing 1% FBS, to produce foam-cells. On the day of the experiment, cell monolayers were rinsed (3 times) with 20 ml/flask of HBSS, incubated 1 h with 0.2% BSA in serum-free RPMI-1640 medium, then rinsed (3 times) with serum-free RPMI. Rinsed cells were then exposed (20 ml/flask) to either apoA-I (15 flasks) or ATI-5261 (15 flasks), at a final concentration of 10 microgram/ml serum free RPMI. Following 20 h, conditioned medium was recovered from flasks, pooled within groups, and filtered (0.2 mμ). The pooled medium (˜300 ml) was subsequently concentrated to 5 ml using an Amicon stir-cell (10 K membrane) and density adjusted to 1.21 g/ml with solid NaBr. Nascent HDL was isolated by ultracentrifugation (120K, 5 h 20 minutes, 10° C.) using a TL-120 centrifuge, samples dialyzed to saline (pH=7.4) and filter sterilized (0.2 nip, Nalgene capsules). Isolated material was used for detailed MS of PL subclasses, subjected to non-denaturing gradient gel electrophoresis and protein lipid ratios determined by 280 abs. and commercial kits.
# Samples were kept at −80° C. until extraction. Samples were allowed to thaw on ice and a small aliquot of each sample was transferred into siliconized glass tubes followed by addition of ultrapure water. Samples were spiked with either a mixture of C17-based ceramide, sphingosine, sphingosine-1-phosphate and sphingomyelin (10 ng of each as internal sphingolipid standards) or ([…] of deuterated 16:0/16:0 PC as internal phosphatidylcholine standard). Samples were subjected to a Bligh and Dyer extraction (Bligh, E. G., Dryer, W. J. (1959) Can J Biochem physiol 37, 911-917). Lipid extracts were dried under stream of nitrogen at room temperature. The dried lipid extracts were then reconstituted in […] ethanol/formic acid (99.8/0.2) and kept at 4° C. until LC-MS/MS analysis. Extracts were injected onto a reverse phase C18 HPLC Column to separate and resolve the various lipids. Phosphatidylcholine and sphingolipids were eluted off the column and analyzed on a triple quadrupole mass spectrometer Sciex API 5500. The data acquisition was performed in a targeted MRM (MS/MS) mode using lipid specific precursor ion to product ion (or parent to daughter ion) mass transitions resulting in highly sensitive and specific quantitative data. The resulting data was processed using Applied Biosystems Analyst 1.4.2 software.
substance,measurement,setting,value
"ApoA-I: apolipoprotein A-I, natures strongest effluxer, lipid-free comparator",Cholesterol: Phospholipid molar ratio mobilized to media,"10 microgram/ml, 20 h, (S.D.)",2.89 (S.D. 0.68)
same,PC mobilized to media,"LC-MS/MS, 10 microgram/ml, 20 h",19
same,LPC mobilized to media,"LC-MS/MS, n=2",40
same,LPC media concentrations,all LPC,increased
same,phospholipid (PL) media concentrations,all PL,increased
same,type of LPC mobilized,values adjusted for the 2-fold difference,more of longer chain and more saturated LPCs
